The target of one assay is Estrogen receptor beta (Homo sapiens, UniProt Q92731). As to the kind of experiment: Inhibition of human Estrogen receptor beta.
The target of a further assay is T1, Progesterone receptor (Homo sapiens, UniProt P06401).
T1 sequence (P06401 whole entry): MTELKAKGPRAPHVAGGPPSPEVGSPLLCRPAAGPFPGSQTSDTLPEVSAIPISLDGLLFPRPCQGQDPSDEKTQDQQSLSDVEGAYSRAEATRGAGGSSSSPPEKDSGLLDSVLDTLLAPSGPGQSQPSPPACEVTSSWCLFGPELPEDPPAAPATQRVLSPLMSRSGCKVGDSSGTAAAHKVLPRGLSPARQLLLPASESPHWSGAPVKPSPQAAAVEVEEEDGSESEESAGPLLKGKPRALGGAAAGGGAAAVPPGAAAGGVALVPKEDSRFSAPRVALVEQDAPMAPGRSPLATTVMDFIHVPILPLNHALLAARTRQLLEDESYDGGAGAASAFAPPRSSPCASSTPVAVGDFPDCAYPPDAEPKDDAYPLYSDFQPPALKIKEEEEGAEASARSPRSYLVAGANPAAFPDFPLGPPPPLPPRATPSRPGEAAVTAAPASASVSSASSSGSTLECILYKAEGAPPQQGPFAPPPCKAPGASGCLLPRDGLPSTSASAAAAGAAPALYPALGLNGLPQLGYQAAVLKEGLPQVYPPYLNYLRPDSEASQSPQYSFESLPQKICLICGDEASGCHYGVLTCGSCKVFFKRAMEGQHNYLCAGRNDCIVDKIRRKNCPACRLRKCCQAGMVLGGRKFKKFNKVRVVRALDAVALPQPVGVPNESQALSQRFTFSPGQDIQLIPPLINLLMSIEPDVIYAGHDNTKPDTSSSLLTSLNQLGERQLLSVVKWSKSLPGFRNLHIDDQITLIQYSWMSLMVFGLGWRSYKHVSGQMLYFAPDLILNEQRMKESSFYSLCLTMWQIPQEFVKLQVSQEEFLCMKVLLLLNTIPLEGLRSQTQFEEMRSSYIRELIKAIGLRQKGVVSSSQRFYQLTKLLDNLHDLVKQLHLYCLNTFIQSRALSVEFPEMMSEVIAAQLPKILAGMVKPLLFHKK
As to the kind of experiment: Inhibition of human progesterone receptor.

A short description of assay [1]: Inhibitory activity against rat lymphocytes. The arrangement: concentration or dose not given beside the values.
Assay [2] concerns the target T2, Thyroid hormone receptor alpha (Homo sapiens, UniProt P10827).
T2 sequence (P10827 whole entry): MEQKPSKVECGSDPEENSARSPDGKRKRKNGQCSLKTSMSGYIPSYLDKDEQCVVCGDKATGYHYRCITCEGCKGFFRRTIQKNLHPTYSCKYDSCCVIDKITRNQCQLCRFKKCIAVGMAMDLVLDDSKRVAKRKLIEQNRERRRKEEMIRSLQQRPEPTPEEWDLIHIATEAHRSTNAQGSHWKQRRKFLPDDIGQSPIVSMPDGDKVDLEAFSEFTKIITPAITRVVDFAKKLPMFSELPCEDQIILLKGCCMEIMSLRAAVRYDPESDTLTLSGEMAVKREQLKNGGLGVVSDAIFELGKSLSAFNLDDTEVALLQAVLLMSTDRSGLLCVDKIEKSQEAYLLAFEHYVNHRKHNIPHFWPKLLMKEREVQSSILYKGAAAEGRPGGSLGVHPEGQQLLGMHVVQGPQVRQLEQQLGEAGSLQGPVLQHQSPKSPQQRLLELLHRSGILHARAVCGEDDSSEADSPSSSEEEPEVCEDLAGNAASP
As to the kind of experiment: Inhibition of human Thyroid hormone receptor alpha.

The target in assay [3] is T3, Glucocorticoid receptor (Homo sapiens, UniProt P04150).
T3 sequence (P04150 whole entry): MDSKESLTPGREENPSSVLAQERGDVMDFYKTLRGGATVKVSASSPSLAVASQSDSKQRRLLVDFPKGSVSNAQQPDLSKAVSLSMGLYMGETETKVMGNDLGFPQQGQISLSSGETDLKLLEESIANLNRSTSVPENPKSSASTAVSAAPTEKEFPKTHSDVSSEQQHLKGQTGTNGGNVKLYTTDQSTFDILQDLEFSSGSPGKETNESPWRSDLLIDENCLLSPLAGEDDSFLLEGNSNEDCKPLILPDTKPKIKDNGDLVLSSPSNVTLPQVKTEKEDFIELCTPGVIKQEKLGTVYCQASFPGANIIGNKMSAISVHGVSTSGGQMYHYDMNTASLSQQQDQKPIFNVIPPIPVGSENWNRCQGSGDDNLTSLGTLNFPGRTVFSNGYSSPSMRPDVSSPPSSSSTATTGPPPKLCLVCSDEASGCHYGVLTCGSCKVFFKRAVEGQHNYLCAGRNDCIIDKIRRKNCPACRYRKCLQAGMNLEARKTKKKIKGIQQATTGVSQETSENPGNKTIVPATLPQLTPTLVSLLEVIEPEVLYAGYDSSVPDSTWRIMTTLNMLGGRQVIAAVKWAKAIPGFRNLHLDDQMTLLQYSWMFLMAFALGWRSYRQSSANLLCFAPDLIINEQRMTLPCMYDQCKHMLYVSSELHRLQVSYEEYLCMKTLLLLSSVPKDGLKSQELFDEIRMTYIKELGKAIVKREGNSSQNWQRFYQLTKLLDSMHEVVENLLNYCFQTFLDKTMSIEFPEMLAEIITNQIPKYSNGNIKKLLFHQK
As to the kind of experiment: Inhibition of glucocorticoid receptor dependent alkaline phosphatase activity. It counts as functional.

For assay [4], the target named is T3, Glucocorticoid receptor. As to the kind of experiment: Inhibition of human glucocorticoid receptor.
Assay [5] has as its target Glucocorticoid receptor (Rattus norvegicus) (UniProt P06536). As to the kind of experiment: Inhibition of glucocorticoid receptor mediated tyrosine aminotransferase activity. Particulars: concentration not given here. The arrangement: concentration or dose not given beside the values.

Sequence of Estrogen receptor beta (Q92731 whole entry): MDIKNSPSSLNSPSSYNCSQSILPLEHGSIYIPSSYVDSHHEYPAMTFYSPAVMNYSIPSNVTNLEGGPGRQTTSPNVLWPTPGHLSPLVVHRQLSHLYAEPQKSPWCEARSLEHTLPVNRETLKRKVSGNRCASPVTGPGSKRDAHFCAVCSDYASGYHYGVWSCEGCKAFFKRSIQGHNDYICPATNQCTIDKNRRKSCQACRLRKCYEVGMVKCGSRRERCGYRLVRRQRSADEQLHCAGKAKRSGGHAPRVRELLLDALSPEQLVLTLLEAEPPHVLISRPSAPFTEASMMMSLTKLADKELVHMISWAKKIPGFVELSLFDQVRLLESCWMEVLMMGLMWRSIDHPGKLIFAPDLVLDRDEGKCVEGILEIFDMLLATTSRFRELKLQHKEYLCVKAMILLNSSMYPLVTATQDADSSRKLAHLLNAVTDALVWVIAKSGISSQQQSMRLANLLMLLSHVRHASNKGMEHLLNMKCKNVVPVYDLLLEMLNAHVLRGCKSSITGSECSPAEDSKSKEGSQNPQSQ
Sequence of Glucocorticoid receptor (Rattus norvegicus) (P06536 whole entry, looked up): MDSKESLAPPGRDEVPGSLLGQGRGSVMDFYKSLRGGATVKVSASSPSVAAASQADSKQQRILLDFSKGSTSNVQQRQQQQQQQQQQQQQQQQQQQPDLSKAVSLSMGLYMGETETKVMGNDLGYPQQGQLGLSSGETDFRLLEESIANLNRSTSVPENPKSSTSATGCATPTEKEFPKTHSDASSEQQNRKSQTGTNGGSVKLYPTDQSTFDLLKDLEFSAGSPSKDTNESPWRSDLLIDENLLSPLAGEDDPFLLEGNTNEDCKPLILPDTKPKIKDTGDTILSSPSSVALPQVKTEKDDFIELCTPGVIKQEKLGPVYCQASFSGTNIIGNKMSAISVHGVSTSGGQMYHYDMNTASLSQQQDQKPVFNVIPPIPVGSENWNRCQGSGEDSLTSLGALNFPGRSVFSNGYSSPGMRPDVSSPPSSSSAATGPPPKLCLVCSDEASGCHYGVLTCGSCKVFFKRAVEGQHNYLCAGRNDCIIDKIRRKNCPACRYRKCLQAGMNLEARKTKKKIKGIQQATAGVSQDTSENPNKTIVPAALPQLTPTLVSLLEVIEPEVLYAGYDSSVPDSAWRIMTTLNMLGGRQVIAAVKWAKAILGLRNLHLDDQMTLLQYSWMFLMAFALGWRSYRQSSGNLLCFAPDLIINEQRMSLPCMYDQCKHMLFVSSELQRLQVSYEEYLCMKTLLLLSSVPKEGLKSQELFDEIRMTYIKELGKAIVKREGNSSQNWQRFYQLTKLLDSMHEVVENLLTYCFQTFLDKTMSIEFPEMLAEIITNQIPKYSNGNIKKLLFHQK

Turning to `C#C[C@]1(O)CC[C@H]2[C@@H]3CCC4=CC(=O)CCC4=C3[C@@H](c3ccc(N(C)CCOC4CC[C@@]5(C)[C@@H](C4)C[C@@H](O)[C@@H]4[C@@H]5C[C@H](O)[C@]5(C)[C@@H]([C@H](C)CCC(=O)O)CC[C@@H]45)cc3)C[C@@]21C` (stereo in doubt; form 2), the Ki (in general, a measure of affinity in units of concentration, obtained from inhibition or displacement) on Estrogen receptor beta is 110 nM; at Progesterone receptor, 0.81 nM; in assay [2] it was 670 nM; on Glucocorticoid receptor [3] it was 1.1 nM; on Glucocorticoid receptor [4], 0.27 nM. For the same compound, the Inhibition – broadly, the drop in the measured response relative to a control, in per cent – in assay [1] is 9%.
Consider `C#C[C@]1(O)CC[C@H]2[C@@H]3CCC4=CC(=O)CCC4=C3[C@@H](c3ccc(N(C)CCOC4CC[C@@]5(C)[C@@H](C4)C[C@@H](O)[C@@H]4[C@@H]5C[C@H](O)[C@]5(C)[C@@H]([C@H](C)CCC(=O)NCC(=O)O)CC[C@@H]45)cc3)C[C@@]21C` (some centres undefined), for which the Ki at Progesterone receptor is 1 nM; in assay [2], greater than 1250 nM; at Glucocorticoid receptor [3], 8.6 nM; at Glucocorticoid receptor [4] it was 0.42 nM.
With `C#C[C@]1(O)CC[C@H]2[C@@H]3CCC4=CC(=O)CCC4=C3[C@@H](c3ccc(N(C)CCNC(=O)N(C)C4CC[C@@]5(C)[C@@H](C4)C[C@@H](O)[C@@H]4[C@@H]5C[C@H](O)[C@]5(C)[C@@H]([C@H](C)CCC(=O)O)CC[C@@H]45)cc3)C[C@@]21C` (some centres undefined), the Ki on Estrogen receptor beta was 190 nM; on Progesterone receptor, 3.5 nM; in assay [2] it was greater than 1250 nM; on Glucocorticoid receptor [3] it was 15 nM; on Glucocorticoid receptor [4], 0.3 nM.
In the same order, the values of `C#C[C@]1(O)CC[C@H]2[C@@H]3CCC4=CC(=O)CCC4=C3[C@@H](c3ccc(N(C)CCOC4CC[C@@]5(C)[C@@H](C4)C[C@@H](O)[C@@H]4[C@@H]5C[C@H](O)[C@]5(C)[C@@H]([C@H](C)CCC(=O)NCCS(=O)(=O)O)CC[C@@H]45)cc3)C[C@@]21C` (some centres undefined) are 30 nM, 0.53 nM, greater than 1250 nM, 37 nM and 0.27 nM.
The matching figures for `C#C[C@]1(O)CC[C@H]2[C@@H]3CCC4=CC(=O)CCC4=C3[C@@H](c3ccc(N(C)C(C)=O)cc3)C[C@@]21C`: 570 nM, 6.4 nM, 790 nM, 1.4 nM and 0.4 nM.
With `C#C[C@]1(O)CC[C@H]2[C@@H]3CCC4=CC(=O)CCC4=C3[C@@H](c3ccc(N(C)CCOCCO[C@H]4CC[C@@]5(C)[C@@H](C4)C[C@@H](O)[C@@H]4[C@@H]5C[C@H](O)[C@]5(C)[C@@H]([C@H](C)CCC(=O)O)CC[C@@H]45)cc3)C[C@@]21C`, the inhibitory constant (Ki) on Estrogen receptor beta is 51 nM; on Progesterone receptor, 0.48 nM; in assay [2] it was greater than 1250 nM; on Glucocorticoid receptor [3], 1.1 nM; at Glucocorticoid receptor [4], 0.17 nM. The Inhibition in assay [1] turned out to be 43%. Besides, the inhibition (commonly the change of the read-out against control, counted positive when it falls) in assay [5] is 60%.
Take `C#C[C@]1(O)CC[C@H]2[C@@H]3CCC4=CC(=O)CCC4=C3[C@@H](c3ccc(N(C)C(=O)CNC(=O)OC4CC[C@@]5(C)[C@@H](C4)C[C@@H](O)[C@@H]4[C@@H]5C[C@H](O)[C@]5(C)[C@@H]([C@H](C)CCC(=O)O)CC[C@@H]45)cc3)C[C@@]21C` (some centres undefined): the inhibition constant (Ki) at Estrogen receptor beta worked out at 160 nM; on Progesterone receptor it was 2.4 nM; in assay [2], 1100 nM; on Glucocorticoid receptor [3], 50 nM; at Glucocorticoid receptor [4], 2.1 nM.
As to `C#C[C@]1(O)CC[C@H]2[C@@H]3CCC4=CC(=O)CCC4=C3[C@@H](c3ccc(N(C)CCCS(=O)(=O)N(C)C4CC[C@@]5(C)[C@@H](C4)C[C@@H](O)[C@@H]4[C@@H]5C[C@H](O)[C@]5(C)[C@@H]([C@H](C)CCC(=O)O)CC[C@@H]45)cc3)C[C@@]21C` (some centres undefined), the Ki stood at 39 nM on Estrogen receptor beta, 1.9 nM at Progesterone receptor, 15 nM on Glucocorticoid receptor [3] and 0.42 nM on Glucocorticoid receptor [4]. For the same compound, the Inhibition in assay [1] came out at 9%.
Turning to `C#C[C@]1(O)CC[C@H]2[C@@H]3CCC4=CC(=O)CCC4=C3[C@@H](c3ccc(N(C)CCOC4CC[C@@]5(C)[C@@H](C4)C[C@@H](O)[C@@H]4[C@@H]5C[C@H](O)[C@]5(C)[C@@H]([C@H](C)CCC(=O)O)CC[C@@H]45)cc3)C[C@@]21C` (stereo in doubt; form 1), the Ki on Estrogen receptor beta is 89 nM; on Progesterone receptor it was 3.3 nM; in assay [2], greater than 1250 nM; at Glucocorticoid receptor [3], 11 nM; at Glucocorticoid receptor [4] it was 0.67 nM. Also, the Inhibition in assay [1] is -14%.
With `C#C[C@]1(O)CC[C@H]2[C@@H]3CCC4=CC(=O)CCC4=C3[C@@H](c3ccc(N(C)C(=O)CC[C@H](NC(=O)CC[C@@H](C)[C@H]4CC[C@H]5[C@@H]6[C@H](O)C[C@@H]7C[C@H](O)CC[C@]7(C)[C@H]6C[C@H](O)[C@]45C)C(=O)O)cc3)C[C@@]21C`, the inhibition constant Ki was 240 nM on Estrogen receptor beta; 1.2 nM on Progesterone receptor; 1200 nM in assay [2]; 250 nM on Glucocorticoid receptor [3]; 3 nM on Glucocorticoid receptor [4].
With `C#C[C@]1(O)CC[C@H]2[C@@H]3CCC4=CC(=O)CCC4=C3[C@@H](c3ccc(N(C)CCC[C@H]4[C@H](O)CC[C@@]5(C)[C@@H]4C[C@@H](O)[C@@H]4[C@@H]5C[C@H](O)[C@]5(C)[C@@H]([C@H](C)CCC(=O)O)CC[C@@H]45)cc3)C[C@@]21C`, the inhibition constant Ki on Estrogen receptor beta is 48 nM; on Progesterone receptor, 2.1 nM; at Glucocorticoid receptor [3], 52 nM; on Glucocorticoid receptor [4], 0.8 nM.
`C#C[C@]1(O)CC[C@H]2[C@@H]3CCC4=CC(=O)CCC4=C3[C@@H](c3ccc(N(C)C(=O)CNC(=O)O[C@@H]4C[C@@H]5CC(O)CC[C@]5(C)[C@H]5C[C@H](O)[C@]6(C)[C@@H]([C@H](C)CCC(=O)O)CC[C@H]6[C@H]45)cc3)C[C@@]21C` (some centres undefined): the Ki was greater than 750 nM at Estrogen receptor beta; 4.4 nM on Progesterone receptor; greater than 1250 nM in assay [2]; 49 nM on Glucocorticoid receptor [3]; 1.1 nM on Glucocorticoid receptor [4].
Turning to `C#C[C@]1(O)CC[C@H]2[C@@H]3CCC4=CC(=O)CCC4=C3[C@@H](c3ccc(N(C)CCCC(=O)N(C)C4CC[C@@]5(C)[C@@H](C4)C[C@@H](O)[C@@H]4[C@@H]5C[C@H](O)[C@]5(C)[C@@H]([C@H](C)CCC(=O)O)CC[C@@H]45)cc3)C[C@@]21C` (some centres undefined), the Ki is 13 nM on Estrogen receptor beta; 0.96 nM at Progesterone receptor; greater than 1250 nM in assay [2]; 1.2 nM at Glucocorticoid receptor [3]; 0.27 nM at Glucocorticoid receptor [4]. Moreover, the Inhibition in assay [1] is listed as 4%. For the same compound, the inhibition in assay [5] stood at 11%.

These data come from ChEMBL document CHEMBL1138676, “Liver-selective glucocorticoid antagonists: a novel treatment for type 2 diabetes” (J Med Chem, 2004).
